Test: Pain relief and mobility in patients with musculoskeletal trauma, flavonoid/flavonol versus NSAID
Type: in vivo, human
Procedure: A preparation containing 2000 mg of quercitin and 20 mg OPC flavonols was given to one group of patients every 6 hours relief of pain. A second group of patients were given 650 mg of […]) every 4 hours.

[1] = Acute knee trauma patellar dislocation

Structure (SMILES): Cc1ccc(-c2cc(C(F)(F)F)nn2-c2ccc(S(N)(=O)=O)cc2)cc1 [NSAID]
- mobility [1]: mobility = 10
- pain dec [1]: pain dec = 5
- mobility (Basketball "groin muscle pull"): mobility = 30
- pain dec (Basketball "groin muscle pull"): pain dec = 15
- mobility (Blunt injury to R. shoulder): mobility = 25
- pain dec (Blunt injury to R. shoulder): pain dec = 20
